Paper PMC7003431, “Betulinic acid shows anticancer activity against equine melanoma cells and permeates isolated equine skin in vitro” (BMC Veterinary Research, 2020)

How the values were obtained:
actinic keratoses = tested on: actinic keratoses; design: method as in PMID 18808378; conditions: 14 human patients; cited from earlier work
[1] = tested on: primary equine dermal fibroblasts PriFi1; assay: MTS cytotoxicity assay (CellTiter 96 AQueous One Solution); format: cell-based, horse; conditions: Equus caballus, Fibroblast, mean (95% CI), 6–8 experiments
Method: (§1) The inhibitory effect of BA on cell proliferation was evaluated using a modified crystal violet staining (CVS) assay. In brief, cells were seeded into 96-well microtiter plates with a density of 5000 cells/well to avert confluence of the cells during the experimental period. Twenty-four hours later, the cells were treated with serial dilutions of BA dissolved in DMSO and medium at nine different concentrations ranging from 1 to 100 μmol/L. The highest concentration of DMSO solvent was 0.5% in 100 μmol/L, which had neither an impact on the cell proliferation rate nor on the cell survival rate (preliminary experiments and regular controls within the experiments; data not shown). Control cells were only treated with medium. The proportion of treated cells in relation to untreated controls was determined 5, 24, 48 and 96 h after the beginning of the drug exposure. The medium for 96-h experiments was renewed before cell treatment (24 h after inoculation). The medium-compound mix was discarded at the time points mentioned above and cells were fixed with 2% glutaraldehyde (Sigma-Aldrich) in PBS for 20 min. Glutaraldehyde was removed and cells were dyed for 30 min with 0.1% crystal violet (Roth GmbH, Karlsruhe, Germany) in deionized water. After washing with deionized water, the plates were air-dried. Subsequently, crystal violet was solubilized out of the cells by adding 2% Triton X-100 (Sigma-Aldrich, Steinheim, Germany) in deionized water. After 1 h of incubation, absorbance was measured at 570 nm using a 96-well microtiter plate reader (MRX microplate reader, Dynatech Laboratories, El Paso, US). Experiments were performed in six to eight biological replicates with two technical replicates for each combination of cell type, incubation time and pharmacologic compound concentration. The ratios of mean optical density of the duplicate to mean optical density of the associated controls were used for dose-response curves.
(§2) The cytotoxicity of BA was evaluated using the CellTiter 96® AQueous One Solution Cell Proliferation Assay (MTS) (Promega GmbH, Mannheim, Germany). Cells were seeded into 96-well microtiter plates with the appropriate cell densities to achieve confluence after 48 h (MelDuWi 30.000 cells/well; PriFi1, PriFi2, eRGO1 20.000 cells/well). After 48 h, these cells were treated in accordance with the CVS assay. Experiments were stopped at the same time points as the CVS assay. The medium for the 96-h experiments was renewed before treatment. The MTS was applied in accordance with the manufacturer’s instructions. After 1 h incubation, the plate absorbance was measured at 490 nm using a 96-well microtiter plate reader (MRX microplate reader, Dynatech Laboratories, El Paso, US). Experiments were performed in six to eight biological replicates with two technical replicates for each combination of pharmacologic compound, cell type, incubation time and concentration.
(§3) Technical duplicates with a coefficient of variation of more than 20% were excluded from the analysis of the cell assays. The pharmacodynamic model 108 of Phoenix® WinNonlin® software (version 8.1, Certara, USA) was used to determine half-maximal inhibitory concentrations (IC50 values). Further statistical analysis was performed with R 3.5.1 [60]. A generalized additive model was fitted for both MTS and CVS using the ‘mgcv’ package to estimate the effects of the BA concentration, cell line and duration of incubation on the ratio of the mean optical density of the duplicates from six to eight replicates to the mean optical density of the associated controls. The effect of concentration was modelled as a smoothed term interacting with the duration of incubation using a thin plate regression spline. The P-values were obtained by performing a Wald test for each parameter. Post-hoc comparisons for the cell line and duration of incubation were performed using the ‘multcomp’ package with single-step adjustment of the P-values. […]

[2] = tested on: primary equine dermal fibroblasts PriFi2; assay: as above; format: cell-based, horse; conditions: Equus caballus, Fibroblast, mean (95% CI), 6–8 experiments
Method: as §1, §2, §3

[3] = tested on: primary equine melanoma cells MelDuWi; assay: as above; format: cell-based, horse; conditions: Equus caballus, mean (95% CI), 6–8 experiments
Method: as §1, §2, §3

[4] = tested on: primary equine melanoma cells eRGO1; assay: as above; format: cell-based, horse; conditions: Equus caballus, mean (95% CI), 6–8 experiments
Method: as §1, §2, §3

[5] = tested on: primary equine dermal fibroblasts PriFi1; assay: Crystal violet staining (CVS) proliferation assay; format: cell-based, horse; conditions: Equus caballus, Fibroblast, mean (95% CI), 6–8 experiments
Method: as §1
(§4) Technical duplicates with a coefficient of variation of more than 20% were excluded from the analysis of the cell assays. The pharmacodynamic model 108 of Phoenix® WinNonlin® software (version 8.1, Certara, USA) was used to determine half-maximal inhibitory concentrations (IC50 values). Further statistical analysis was performed with R 3.5.1 [60]. A generalized additive model was fitted for both MTS and CVS using the ‘mgcv’ package to estimate the effects of the BA concentration, cell line and duration of incubation on the ratio of the mean optical density of the duplicates from six to eight replicates to the mean optical density of the associated controls. The effect of concentration was modelled as a smoothed term interacting with the duration of incubation using a thin plate regression spline. The P-values were obtained by performing a Wald test for each parameter. Post-hoc comparisons for the cell line and duration of incubation were performed using the ‘multcomp’ package with single-step adjustment of the P-values. Plots were produced with ggplot2 [63]. Statistical significance was set at P < 0.05.

[6] = tested on: primary equine dermal fibroblasts PriFi2; assay: Crystal violet staining (CVS) proliferation assay; format: cell-based, horse; conditions: Equus caballus, Fibroblast, mean (95% CI), 6–8 experiments
Method: as §1, §4

[7] = tested on: primary equine melanoma cells MelDuWi; assay: Crystal violet staining (CVS) proliferation assay; format: cell-based, horse; conditions: Equus caballus, mean (95% CI), 6–8 experiments
Method: as §1, §4

[8] = tested on: primary equine melanoma cells eRGO1; assay: Crystal violet staining (CVS) proliferation assay; format: cell-based, horse; conditions: Equus caballus, mean (95% CI), 6–8 experiments
Method: as §1, §4

[9] = Franz-type diffusion cell penetration and permeation on isolated equine skin; format: in vitro ADME, horse; conditions: 24 h FDC
From the text: Skin samples from seven adult horses of different sex (three mares, two geldings, two unknown) and breed (including three Warmbloods, one Icelandic horse and one Welsh Cob pony, two unknown) were harvested at the Institute of Pathology, University of Veterinary Medicine Hannover, Foundation, Hannover, after euthanasia at the Clinic for Horses, University of Veterinary Medicine Hannover, Foundation, Hannover, for reasons unrelated to the present study. The horses’ ages ranged from 4 to 24 years, with a median of 13.5 years. Skin from the lateral thorax was dissected and stored at − 20 °C for up to 5 months.
“Basiscreme DAC” (pharmaceutical amphiphilic formulation as published in the German Drug Codex) with 1% BA and 20% medium-chain triglycerides was provided by Skinomics GmbH, Halle, Germany.
In order to investigate the penetration and permeation of 1% BA with 20% medium-chain triglycerides in “Basiscreme DAC” through equine skin, the skin samples were defrosted overnight at room temperature. The coat was clipped to a length of approximately 0.5 mm. The integrity of the skin samples was visually assessed. Skin slices of 800 μm (+/− 110 μm) thickness were obtained with an electrical dermatome (Zimmer, Eschbach, Germany). Franz-type diffusion cells (FDC) (PermeGear, Riegelsville, USA, and Gauer Glas, Püttlingen, Germany) with a diffusion area of 1.77 cm^2 and an acceptor chamber volume of approximately 12 mL were filled with PBS and 1% bovine serum albumin. The acceptor chamber content was constantly stirred with a magnetic stirrer at 500 rpm. Diffusion chambers were maintained at 34 °C to ensure a skin temperature of 32 ± 0.5 °C. Before use, equal hydration of the skin samples was obtained by 30 min immersion in PBS. After gently drying with a paper tissue, 20 mg of the drug formulation was carefully applied to the skin surface (stratum corneum) covering the complete diffusion area before mounting the skin pieces onto the FDC. The donor chamber and sampling tube were covered with parafilm.
After 24 h, the remaining donor formulation was removed from the skin with a dry cotton swab. Cotton swabs, acceptor medium and exposed areas of the skin samples, which were cut out with a scalpel blade, were stored at − 20 °C until further processing and analysis. In order to determine the amount of BA in different skin layers, frozen skin samples were fixed on tissue freezing medium (Leica Biosystems Nussloch GmbH, Nussloch, Germany) and placed in a cryostat (CryoStar™ NX70 Cryostat, Thermofisher, Darmstadt, Germany). From each skin sample slices were cut horizontally to the epidermis, starting with the stratum corneum side uppermost, and stored separately. […] After reaching a skin depth of 310 μm, slices were pooled at 5 × 20 μm until a depth of a maximum of 910 μm was reached. The blade was cleaned with tissues soaked in 70% ethanol (CG Chemikalien, Laatzen, Germany) between each cut. These cleaning tissues and skin samples were stored at − 20 °C until final analysis. An analytic high-performance liquid chromatography method was developed for BA quantification in the different skin layers, acceptor medium and cleaning utensils mentioned previously. Reverse phase analysis was performed using an Agilent 1100 system (Agilent, Waldbronn, Germany) on a Kinetex column (5 μm, C18, 100 Å, 250 × 4.6 mm; Phenomenex, Torrance, US) at 35 °C developing with acetonitrile:water (0.1% HCOOH) 4:1 (v/v) at 2.5 mL/min. The diode array detector was set at 200 nm.

[10] = tested on: primary equine melanoma cells compared to primary equine dermal fibroblasts; assay: Selectivity to tumor cells compared to normal cells (MTS and CVS assays); format: cell-based, horse; conditions: equine melanoma cells eRGO1, MelDuWi vs fibroblasts PriFi1, PriFi2
Method: The inhibitory effect of BA on cell proliferation was evaluated using a modified crystal violet staining (CVS) assay. In brief, cells were seeded into 96-well microtiter plates with a density of 5000 cells/well to avert confluence of the cells during the experimental period. Twenty-four hours later, the cells were treated with serial dilutions of BA dissolved in DMSO and medium at nine different concentrations ranging from 1 to 100 μmol/L. The highest concentration of DMSO solvent was 0.5% in 100 μmol/L, which had neither an impact on the cell proliferation rate nor on the cell survival rate (preliminary experiments and regular controls within the experiments; data not shown). Control cells were only treated with medium. The proportion of treated cells in relation to untreated controls was determined 5, 24, 48 and 96 h after the beginning of the drug exposure. […] After 1 h of incubation, absorbance was measured at 570 nm using a 96-well microtiter plate reader (MRX microplate reader, Dynatech Laboratories, El Paso, US). […]
The cytotoxicity of BA was evaluated using the CellTiter 96® AQueous One Solution Cell Proliferation Assay (MTS) (Promega GmbH, Mannheim, Germany). […] After 1 h incubation, the plate absorbance was measured at 490 nm using a 96-well microtiter plate reader (MRX microplate reader, Dynatech Laboratories, El Paso, US). […]

[11] = tested on: equine melanoma cells MelDuWi; design: method as in PMID 26772157; conditions: 96 h incubation, read-out: IC50, sulforhodamine B assay; cited from earlier work
[12] = tested on: equine melanoma cells MelJess; design: method as in PMID 26772157; conditions: 96 h incubation, read-out: IC50, sulforhodamine B assay; cited from earlier work
[13] = 1% BA with 20% medium-chain triglycerides in Basiscreme DAC, mean ± SD

C=C(C)[C@@H]1CC[C@]2(CO)CC[C@]3(C)[C@H](CC[C@@H]4[C@@]5(C)CC[C@H](O)C(C)(C)[C@@H]5CC[C@]43C)[C@@H]12 [betulin]
side effects of topical treatment (actinic keratoses): did not lead to any side effects

C=C(C)[C@@H]1CC[C@]2(C(=O)O)CC[C@]3(C)[C@H](CC[C@@H]4[C@@]5(C)CC[C@H](O)C(C)(C)[C@@H]5CC[C@]43C)[C@@H]12 [betulinic acid, Betulinic acid]
IC50 ([1]; PriFi1, 24 h treatment): 20.4 µM | IC50 ([1]; PriFi1, 48 h treatment): 18 µM | IC50 ([1]; PriFi1, 96 h treatment): 13.8 µM | IC50 ([2]; PriFi2, 24 h treatment): 24.8 µM | IC50 ([2]; PriFi2, 48 h treatment): 22.7 µM | IC50 ([2]; PriFi2, 96 h treatment): 13.3 µM | IC50 ([3]; 24 h treatment): 34.6 µM | IC50 ([3]; 48 h treatment): 31.7 µM | IC50 ([3]; 96 h treatment): 23.6 µM | IC50 ([4]; eRGO1, 24 h treatment): 22.8 µM | IC50 ([4]; eRGO1, 48 h treatment): 20.7 µM | IC50 ([4]; eRGO1, 96 h treatment): 12.7 µM | IC50 ([5]; PriFi1, 24 h treatment): 58 µM | IC50 ([5]; PriFi1, 48 h treatment): 52.2 µM | IC50 ([5]; PriFi1, 96 h treatment): 14.5 µM | IC50 ([6]; PriFi2, 24 h treatment): 30.3 µM | IC50 ([6]; PriFi2, 48 h treatment): 29.1 µM | IC50 ([6]; PriFi2, 96 h treatment): 13.8 µM | IC50 ([7]; 24 h treatment): 49.2 µM | IC50 ([7]; 48 h treatment): 35.8 µM | IC50 ([7]; 96 h treatment): 21.6 µM | IC50 ([8]; eRGO1, 24 h treatment): 25.9 µM | IC50 ([8]; eRGO1, 48 h treatment): 21.2 µM | IC50 ([8]; eRGO1, 96 h treatment): 19.6 µM | BA amount applied analyzed in the skin [9, 13]: 24 ± 1% | amount of BA applied detected in the acceptor media [9, 13]: 18 ± 11% | amount of BA applied detected in the cotton swabs ([9]; 1% BA with 20% medium-chain triglycerides in Basiscreme DAC, remaining donor formulation, mean ± SD): 56 ± 13% | recovery at 24 h, 1 % ([9]; both sexes, horse, 1% BA with 20% medium-chain triglycerides in Basiscreme DAC, mean ± SD, n = 7, read-out: overall BA recovery): 98 ± 7% | BA amount found in the blade cleaning tissues ([9]; part of the amount in skin, 1% BA cream, mean ± SD): 9 ± 7% | concentration of BA in skin ([9]; skin depth 710 μm, 1% BA cream, mean ± SD (SD 31 μmol/L)): 55.8 µM | concentration of BA in skin ([9]; skin depth 810 μm, 1% BA cream, mean ± SD (SD 38 μmol/L)): 39.6 µM | selectivity to tumor cells compared to normal cells [10]: could not be demonstrated | IC50 [11]: 33.1 µM | IC50 [12]: 33.4 µM
